From patent publication US5849587A, “Method of inhibiting viral replication in eukaryotic cells and of inducing apoptosis of virally-infected cells” (Cornell Research Foundation, Inc., priority 1995, dated 1998)
Entries after “also recorded” stand apart in the source; their conditions may differ.

Assays:
[1] = system: uninfected parent cell line CEM; assay: Cell membrane integrity / viability, uninfected parent cells; assay type: cell-based, human; conditions: incubation and withdrawal, FIG. 12B
Procedure: FIGS. 12A and B show the loss of cell membrane integrity suffered by HIV-1 producing ACH-2 cells and their uninfected parent cell line CEM during incubation with and after withdrawal of mimosine and HK-1. The black bar indicates the duration of inhibitor exposure, the open bar the duration of inhibitor withdrawal. Cell membrane integrity was determined by the ability of the cells to exclude the low-molecular weight dye trypan blue (FIGS. 12A and B) and to retain the spermidine-derived radioactive label of a single, obligatory intracellular protein species, eIF-5A and its deoxyhypusyl precursor (FIG. 12A).
ACH-2 cells were incubated with hypusine inhibitors (mimosine, HK-1) and induced with PMA as outlined in Example II A, except that the duration of exposure to inhibitor was extended to 18-21 hours and that cells were labeled as detailed in Example I B. Half of the cells were then harvested and processed for detection of apoptosis, while the other half was washed free of inhibitors and re-incubated in fresh medium for 2-4 hours, followed by harvesting and processing for detection of […] apoptosis. Using the same protocol, cultures of the parent CEM cell line were incubated in parallel. […]

[2] = system: viral Gag mRNA (Rev-dependent transcripts); assay: Polysomal localization of viral Gag mRNA in PMA-induced ACH-2 cells; assay type: cell-based, HIV-1; conditions: 200 μM
Procedure: (§1) 142, 431-438 (1989), which is hereby incorporated by reference]. However, vigorous HIV-1 production by ACH-2 cells is induced by addition of the phorbol ester PMA [Pomerantz et al., Cell 61, 1271-1276 (1990) and Michael et al., J. Virol 65, 1291-1303 (1991), which are hereby incorporated by reference]. This system was selected for these experiments. Logarithmically growing ACH-2 cells, suspended at a concentration of 3×10^5 /ml, were incubated with the hypusine inhibitors mimosine and HK-1 at a final concentration of 200 μM. After 8 hours, viral replication was activated by addition of PMA to these cells and to untreated controls (100 ng/ml final PMA concentration). […] An aliquot of each fraction was analyzed by slot blotting, using the pXC-1 genomic ribosomal DNA probe from rat containing the 18S rRNA coding sequence [Rimarachin, Szabo et al., In Vitro 28A, 705-707 (1992), which is hereby incorporated by reference], to determine the location within the gradient of 18S rRNA, i.e., the distribution of polysomes vs. monosomes. […] Following electrophoresis, the radio-labeled PCR products were visualized by autoradiography according to routine techniques, and the band intensities quantified by densitometric analysis and expressed relative to total product per gradient.

GAPDH mRNA = assay: Polysomal localization of cellular GAPDH mRNA in PMA-induced ACH-2 cells; assay type: cell-based, human; conditions: 200 μM, FIG. 6
Procedure: as §1

[3] = system: HIV-1 producing ACH-2 cells; assay: Electron microscopy of PMA-induced ACH-2 cells; assay type: cell-based, human
Procedure: FIGS. 11A and B show, representative ultrastructural findings observed in PMA-induced/untreated (FIG. 11A) and PMA-induced/mimosine-treated (FIG. 11B) ACH-2 cells immediately at the end of the 18-hour incubation period. […] Note, however, that such changes occur rapidly after withdrawal of the inhibitors (compare to time course detailed in FIGS. 12A and B and FIGS. 14A-H). [Magnification: 9100×].
3. Ultrastructural investigation of antiviral effect. ACH-2 cells were incubated with hypusine inhibitors (mimosine, HK-1) and induced with PMA as outlined in Example II A. Harvesting, fixation of cells, and electron microscopy were performed according to established techniques [Michael et al., J. Virol 65, 1291-1303 (1991), which is hereby incorporated by reference].

[4] = system: deoxyhypusyl hydroxylase (DOHH); conditions: previously established, Hanauske-Abel et al.; cited from earlier work
[5] = system: cellular deoxyhypusyl hydroxylase; conditions: Hanauske-Abel et al. 1994; cited from earlier work

Row | Compound | cell membrane integrity / viability, uninfected CEM [1] | polysomal localization of viral Gag mRNA ([2]; FIG. 6) | polysomal localization of viral Gag mRNA ([2]; FIG. 6, listed as minosine) | polysomal localization of GAPDH mRNA (GAPDH mRNA) | cells with early apoptotic nuclear changes ([3]; PMA-induced ACH-2, FIG. 11B) | number of viral particles in extracellular space ([3]; PMA-induced ACH-2, end of 18-hour incubation, FIG. 11B) | ultrastructural appearance of treated cells ([3]; PMA-induced ACH-2, end of incubation, FIG. 11B) | hypusine inhibition in cell-free system [4] | inhibition of purified and cellular deoxyhypusyl hydroxylase [5]
1 | Cc1c(O)c(=O)ccn1C [HK-1, 1,2-dimethyl-3-hydroxypyrid-4-one] | no such loss of membrane integrity was noted | – | – | – | – | – | – | – | –
2 | N[C@@H](Cn1ccc(=O)c(O)c1)C(=O)O [L-Mimosine] | no such loss of membrane integrity was noted | redirects a significant portion of the Rev-dependent Gag mRNAs into the non-polysomal fractions | shifted away from the polysomal protein producing machinery into the pool of monosomal/free MRNA | did not affect the polysomal loading of cellular MRNA; also recorded: only a marginal effect on the distribution of GAPDH mRNA | about 20% | marked reduction in the number of viral particles; also recorded: prominent reduction in the number of infectious particles in the extracellular space | normal ultrastructural appearance of the treated ACH-2 cells; also recorded: still lacks overt morphological signs of cell damage | act as hypusine inhibitors in this cell-free system | inhibit purified and cellular deoxyhypusyl hydroxylase
